Measured values taken from US20230257374A1, “NOVEL KRAS G12C PROTEIN INHIBITOR, PREPARATION METHOD THEREFOR, AND USE THEREOF” (INNOVENT BIOLOGICS (SUZHOU) CO., LTD., priority 2019, published 2023).

Key:
in vitro = settings: microsomes, pH 7.4
[1] = Stability test in human plasma; settings: for Remaining percentage (%) 0 min / Remaining percentage (%) 30 min / Remaining percentage (%) 60 min / Remaining percentage (%) 120 min / Remaining percentage (%) 180 min / Remaining percentage (%) 240 min: human plasma, 37° C.; for half-life at 5 μM: human, plasma
[2] = system: NCI-H358 tumor (K-RAS G12C mutation); type: in vivo, BALB/c nude mice; settings: for Day 0 Tumor volume (mm^3) Vaverage ± SEM: Day 0 (at grouping, before administration), 15 mg/kg PO QD group; for Day 21 Tumor volume (mm^3) Vaverage ± SEM / Tumor inhibition rate TGI (%) / Tumor regression: Day 21, 15 mg/kg PO QD; for Tumor regression: animals with regression / group of 8; for Day 0 Body weight (g) Waverage ± SEM: mouse, in vivo, po, 15 mg/kg
Procedure: The cells were digested with trypsin-EDTA twice a week for passaging as per conventional practice. When the cell saturation reached 80%-90% and a required amount was achieved, the cells were collected and counted for later use. […] 5% DMSO/5% Solutol/90% water was used as a blank control. 3) Tumor inoculation and drug administration: BALB/c nude mice, female, 6-8 weeks old, weighing 18-20 g. The experiment started after 3-7 days of adaptive feeding. 0.1 mL of NCI-H358 cells (5×10^6 cells) were inoculated subcutaneously on the right back of each mouse. The mice were grouped for administration when the average tumor volume reached approximately 150 mm^3. The animals were weighed before administration and the tumor volume was measured. Grouping was randomly performed according to the tumor volume.
Animals were monitored daily for health and death, and routine examinations include observation of the effect of tumor growth and drug treatment on the daily performance of the animals, such as behavioral activities, food and water intake, weight changes (measured once every other day), appearance, or other abnormal conditions. Animal mortality and side effects within each group were recorded based on the number of animals in the group.
Tumor diameters were measured 2-3 times weekly using a vernier caliper.
The tumor volume was calculated as follows: […]
where a and b represent the long and short diameters of the tumor, respectively.
The anti-tumor therapeutic effect of the compound was evaluated by tumor growth inhibition rate TGI (%) or relative tumor proliferation rate T/C (%).
TGI (%) was calculated as follows: […]
T/C (%) was calculated as follows: […]
where TRTV represents the relative tumor volume of the treatment group; CRTV represents the relative tumor volume of the solvent control group.
Based on the results of tumor measurement, the relative tumor volume (RTV) was calculated as follows: […]
where V0 represents the average tumor volume measured at the time of grouping and administration (i.e., d0), Vt represents the average tumor volume in a certain measurement, and TRTV and CRTV take the data on the same day.
After the completion of the experiment, tumors were weighed, and the percentage of Tweight/Cweight was calculated, where Tweight and Cweight represent the tumor weights of the treatment group and the solvent control group, respectively.
Data calculation and analysis: T test was employed for comparison between two groups. One-way ANOVA was employed for comparison between three or more groups. If there is a significant difference in F-values, multiple comparisons should be made after ANOVA analysis. All data analyses were performed with SPSS 17.0. p<0.05 was defined as a significant difference.

[3] = system: H358 cell line (K-RAS G12C); experiment: cells; type: cell-based, human; settings: for IC50: Homo sapiens, NCI-H358, 96 h, 3D culture, CellTiter-Glo 3D, read on day 4, read-out: H358 (K-RAS G12C) IC50; for Selectivity (fold number of mutant vs. wild type): PC-9 IC50 vs. H358 IC50
Procedure: a) On day 1, seed cells were placed in T75 a flask. b) On day 3, the medium was taken out and washed once with DPBS. c) Cells were trypsinized with 2 mL TrypLE™ Express enzyme at room temperature (RT) or 37° C. until cells detached. d) 5 mL of fresh medium was added to suspend the cells, and then the suspension was centrifuged at 1000 rpm and room temperature for 5 min. e) The supernatant was discarded, and the cells were resuspended in 5 mL of fresh medium and counted using Countess™ H. f) The cells were seeded back into the T75 flask for further culture or placed into an assay plate for 3D cell proliferation assay.
The cells were seeded at a density of 600 cells/well in a 384-well plate with 40 μL of medium per well and a final DMSO concentration of 0.5%. b) On day 4, a 3D CTG reagent was added to each well, followed by shaking at room temperature for 1 h. c) The signals were recorded using Envision.
a) Robustness was examined using 0.5% DMSO and data of blank control medium: H=mean (DMSO); L=mean (medium); SD (H)=STDEV (DMSO); SD (L)=STDEV (medium);
Y=peak valley value+(peak top value−peak valley value)/(1+10^((Log IC50−X)×HillSlope));
X: logarithm of compound concentration; Y: percent inhibition (% inhibition); Peak top and peak valley values: the plateau period units are the same as Y; log IC50: the same logarithmic unit as X; HillSlope: slope coefficient or Hill slope.

half-life at 1 μM (in vitro; ICR (CD-1), mouse) [min]	microsomal CLint at 1 μM (in vitro; ICR (CD-1), mouse) [µL/min/mg]	half-life at 1 μM (in vitro; human) [min]	microsomal CLint at 1 μM (in vitro; human) [µL/min/mg]	Remaining percentage (%) 0 min [1] [%]	Remaining percentage (%) 30 min [1] [%]	Remaining percentage (%) 60 min [1] [%]	Remaining percentage (%) 120 min [1] [%]	Remaining percentage (%) 180 min [1] [%]	Remaining percentage (%) 240 min [1] [%]	half-life at 5 μM [1] [min]	IC50 [3] [nM]	SMILES	Day 0 Tumor volume (mm^3) Vaverage ± SEM [2] [mm^3]	Day 21 Tumor volume (mm^3) Vaverage ± SEM [2] [mm^3]	Tumor inhibition rate TGI (%) [2] [%]	Tumor regression [2]	Day 0 Body weight (g) Waverage ± SEM [2] [g]	Selectivity (fold number of mutant vs. wild type) [3] [fold]
20.9	66.5	29.3	47.3	100.00	92.80	76.27	58.94	39.27	25.75	122	0.55	[2H]C([2H])([2H])c1cccc2cccc(N3CCc4c(nc(OC[C@@H]5CCCN5C)nc4N4CCN(C(=O)C=C)[C@@H](CC#N)C4)C3)c12 [Compound 1, 2-((S)-1-acryloyl-4-(7-(8-(methyl-d3)naphthalen-1-yl)-2-(((S)-1-methylpyrrolidin-2-yl)methoxy)-5,6,7,8-tetrahydropyrido[3,4-d]pyrimidin-4-yl)piperazin-2-yl)acetonitrile]	150 ± 10	153 ± 14	99.5	3/8	22.5 ± 0.5	8745
22.8	60.9	27.2	51	100.00	90.36	77.31	57.19	36.19	27.49	123	0.62	[2H]C([2H])([2H])N1CCC[C@H]1COc1nc2c(c(N3CCN(C(=O)C=C)[C@@H](CC#N)C3)n1)CCN(c1cccc3cccc(C)c13)C2 [Compound 42, 2-((S)-1-acryloyl-4-(7-(8-methylnaphthalen-1-yl)-2-(((S)-1-(methyl-d3)pyrrolidin-2-yl)methoxy)-5,6,7,8-tetrahydropyrido[3,4-d]pyrimidin-4-yl)piperazin-2-yl)acetonitrile]	150 ± 9	151 ± 18	99.8	4/8	22.8 ± 0.6	3823
